Measured values from article PMC12892976, “Alkylation-based optimization of antifungal FPPS inhibitors yields a potent, broad-spectrum lipophilic zoledronate derivative” (mBio, 2025).
Converted amounts (≈) assume the structure as drawn. Read-outs that look alike come from different tables or passages of the source.

How the values were obtained:
Trichophyton rubrum [1] = experiment: checkerboard drug interaction (FICI, MICc);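 also: simplified diagonal checkerboard screen pairing azole antifungals with FPPS inhibitors, FICI calculated under the Loewe additivity model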; format: cell-based; details: T. rubrum
Method: (§1) Drug interactions between antifungals and FPPS inhibitors were investigated using a simplified checkerboard diagonal screening method ([45]). […] FICIs were determined according to the Loewe additivity model ([17]).

Cryptococcus neoformans [2] = experiment: checkerboard drug interaction (FICI, MICc);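 as to all read-outs here: antifungal plus FPPS inhibitor pairs tested against Cryptococcus neoformans by simplified diagonal checkerboard screening, FICI computed under the Loewe additivity model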; format: cell-based; details: C. neoformans; for INH FD (MIC-MICc fold decrease): fold decrease of inhibitor MIC
Method: as §1

Candida albicans [3] = experiment: checkerboard drug interaction (FICI, MICc);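 as to all read-outs here: antifungal plus FPPS inhibitor combinations on Candida albicans tested by a simplified diagonal checkerboard screen, with FICI calculated under the Loewe additivity model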; format: cell-based; details: C. albicans; for INH FD (MIC-MICc fold decrease): fold decrease of inhibitor MIC
Method: as §1

Saccharomyces cerevisiae [4] = experiment: MIC/MFC broth microdilution (CLSI); format: cell-based; details: Saccharomyces cerevisiae S288c
Method: (§2) Antifungal susceptibility was determined by broth microdilution according to the CLSI guidelines described in M27-Ed4 ([16]). […] MFC was determined by back-plating drug-treated cultures from MIC broths onto SDA plates. The MFC was defined as the lowest concentration from which no colonies could be cultured.

[5] = tested on: Cryptococcus deuterogattii; experiment: MIC/MFC broth microdilution (CLSI); details: Cryptococcus deuterogattii;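 also: broth microdilution per CLSI M27-Ed4. MFC is the lowest concentration yielding no colonies when MIC broths are subcultured onto SDA plates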
Method: as §2

Aspergillus flavus [6] = experiment: checkerboard drug interaction (FICI, MICc);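 also: simplified diagonal checkerboard screen pairing azole antifungals with FPPS inhibitors, FICI calculated under the Loewe additivity model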; format: cell-based; design: INH MICc (KET:INH) / INH MICc (FLC:INH): unit not given beside the values; details: A. flavus
Candida glabrata [7] = experiment: MIC/MFC broth microdilution (CLSI); details: Nakaseomyces glabratus, CBS138;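 also: broth microdilution following CLSI M27-Ed4, MFC taken as the lowest drug level yielding no growth once MIC wells were subcultured on SDA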
Method: as §2

Candida albicans [8] = experiment: MIC/MFC broth microdilution (CLSI); format: cell-based; details: Candida albicans SC5314
Method: as §2

Trichophyton rubrum [9] = experiment: MIC/MFC broth microdilution (CLSI); details: Trichophyton rubrum
Method: as §2

Candida glabrata [10] = experiment: checkerboard drug interaction (FICI, MICc);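 as to all read-outs here: simplified diagonal checkerboard screen pairing antifungals with FPPS inhibitors, FICI calculated under the Loewe additivity model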; format: cell-based; details: C. glabrata; for INH FD (MIC-MICc fold decrease): fold decrease of inhibitor MIC
Method: as §1

[11] = tested on: Cryptococcus deuterogattii; experiment: checkerboard drug interaction (FICI, MICc);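 as to all read-outs here: simplified diagonal checkerboard screen pairing antifungal drugs with FPPS inhibitors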; format: cell-based; details: C. deuterogattii; for INH FD (MIC-MICc fold decrease): fold decrease of inhibitor MIC
Method: as §1

eight fungal species [12] = experiment: MIC/MFC summary across the eight fungal species of Table 1; format: cell-based
Method: The antifungal activity of these compounds was evaluated according to CLSI guidelines ([16]).

Aspergillus fumigatus [13] = experiment: checkerboard drug interaction (FICI, MICc); format: cell-based;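 also: simplified diagonal checkerboard screen pairing antifungals with FPPS inhibitors against Aspergillus fumigatus, with FICI calculated under the Loewe additivity model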
Method: as §1

HEK-293T cells = experiment: MTT reduction cytotoxicity assay; format: cell-based; details: Homo sapiens, HEK-293T, 72 h, MTT, 72 h
Aspergillus flavus [14] = experiment: MIC/MFC broth microdilution (CLSI); details: ATCC204304
Method: as §2

eight fungal species [15] = experiment: checkerboard interaction with azoles, summary across the eight species; format: cell-based; details: geometric mean MIC in combination with azoles
Text: Synergy between lipophilic FPPS inhibitors and azole antifungals was investigated by determining the fractional inhibitory concentration index (FICI) (Fig. 2; Table S1 Fig. S1) ([17]). […]. Derivatives PLA9 and 11, and PDA9, 11, and 12 antagonized azoles in C. albicans, C. neoformans, and C. deuterogattii, yet were largely synergistic in C. glabrata and S. cerevisiae. […].

Saccharomyces cerevisiae [16] = experiment: checkerboard drug interaction (FICI, MICc); format: cell-based; design: INH MICc / INH MICc (ITR:INH) / INH MICc (KET:INH) / INH MICc (FLC:INH): unit not given beside the values;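 also: simplified diagonal checkerboard screen pairing antifungals with FPPS inhibitors, FICI calculated under the Loewe additivity model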
Aspergillus fumigatus [17] = experiment: MIC/MFC broth microdilution (CLSI); details: ATCC204305
Method: as §2

Cryptococcus neoformans [18] = experiment: MIC/MFC broth microdilution (CLSI); details: Cryptococcus neoformans;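 also: susceptibility testing followed the CLSI M27-Ed4 broth microdilution document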
Method: as §2

[19] = Fractional Inhibitory Concentration Index, fluconazole + inhibitor
[20] = Fractional Inhibitory Concentration Index, itraconazole + inhibitor
[21] = Fractional Inhibitory Concentration Index, ketoconazole + inhibitor
[22] = MIC of the inhibitor in combination with fluconazole
[23] = MIC of the inhibitor in combination with itraconazole
[24] = MIC of the inhibitor in combination with ketoconazole
[25] = MIC-MICc fold decrease of fluconazole, negative = increase
[26] = MIC-MICc fold decrease of itraconazole, negative = increase
[27] = MIC-MICc fold decrease of ketoconazole, negative = increase
[28] = MIC-MICc fold decrease of the inhibitor, with fluconazole
[29] = MIC-MICc fold decrease of the inhibitor, with itraconazole
[30] = MIC-MICc fold decrease of the inhibitor, with ketoconazole
[31] = FLC:INH combination, MIC of the inhibitor in combination with FLC
[32] = FLC:INH combination, fold decrease of FLC MIC
[33] = ITR:INH combination, MIC of the inhibitor in combination with ITR
[34] = ITR:INH combination, fold decrease of ITR MIC
[35] = KET:INH combination, MIC of the inhibitor in combination with KET
[36] = KET:INH combination, fold decrease of KET MIC

Compound: CCCCCCCCCCCCN1CCC[C@H]1C(=O)N[C@@H](CC(=O)OC)C(=O)OC [dmPLA12]
- FICI (FLC:INH) (Trichophyton rubrum [1]; [19]): 1.13
- FICI (ITR:INH) (Trichophyton rubrum [1]; [20]): 1.06
- FICI (KET:INH) (Trichophyton rubrum [1]; [21]): 1.13
- INH MICc (FLC:INH) (Trichophyton rubrum [1]; [22]): 16
- INH MICc (ITR:INH) (Trichophyton rubrum [1]; [23]): 16
- INH MICc (KET:INH) (Trichophyton rubrum [1]; [24]): 16
- FLC FD (FLC:INH) (Trichophyton rubrum [1]; [25]): 8
- ITR FD (ITR:INH) (Trichophyton rubrum [1]; [26]): 16
- KET FD (KET:INH) (Trichophyton rubrum [1]; [27]): 8
- INH FD (FLC:INH) (Trichophyton rubrum [1]; [28]): 1
- INH FD (ITR:INH) (Trichophyton rubrum [1]; [29]): 1
- INH FD (KET:INH) (Trichophyton rubrum [1]; [30]): 1
- FICI (Cryptococcus neoformans [2]; FLC:INH combination): 3
- INH MICc (Cryptococcus neoformans [2]; [31]): 32
- FLC FD (MIC-MICc fold decrease) (Cryptococcus neoformans [2]; [32]): 1
- INH FD (MIC-MICc fold decrease) (Cryptococcus neoformans [2]; FLC:INH combination): -2
- FICI (Cryptococcus neoformans [2]; ITR:INH combination): 1.5
- INH MICc (Cryptococcus neoformans [2]; [33]): 16
- ITR FD (MIC-MICc fold decrease) (Cryptococcus neoformans [2]; [34]): 2
- INH FD (MIC-MICc fold decrease) (Cryptococcus neoformans [2]; ITR:INH combination): 1
- FICI (Cryptococcus neoformans [2]; KET:INH combination): 0.75
- INH MICc (Cryptococcus neoformans [2]; [35]): 8
- KET FD (MIC-MICc fold decrease) (Cryptococcus neoformans [2]; [36]): 4
- INH FD (MIC-MICc fold decrease) (Cryptococcus neoformans [2]; KET:INH combination): 2
- FICI (Candida albicans [3]; FLC:INH combination): 1.06
- INH MICc (Candida albicans [3]; [31]): 8
- FLC FD (MIC-MICc fold decrease) (Candida albicans [3]; [32]): 1
- INH FD (MIC-MICc fold decrease) (Candida albicans [3]; FLC:INH combination): 16
- FICI (Candida albicans [3]; ITR:INH combination): ≥4
- INH MICc (Candida albicans [3]; [33]): 32
- ITR FD (MIC-MICc fold decrease) (Candida albicans [3]; [34]): -4
- INH FD (MIC-MICc fold decrease) (Candida albicans [3]; ITR:INH combination): 4
- FICI (Candida albicans [3]; KET:INH combination): 2.13
- INH MICc (Candida albicans [3]; [35]): 16
- KET FD (MIC-MICc fold decrease) (Candida albicans [3]; [36]): -2
- INH FD (MIC-MICc fold decrease) (Candida albicans [3]; KET:INH combination): 8
- MFC (Saccharomyces cerevisiae [4]): 4 µg/mL (≈ 9.38 µM)
- MIC (Saccharomyces cerevisiae [4]): 4 µg/mL (≈ 9.38 µM)
- MFC [5]: 8 µg/mL (≈ 18.8 µM)
- MIC [5]: 8 µg/mL (≈ 18.8 µM)
- FICI (FLC:INH) (Aspergillus flavus [6]; [19]): 1.5
- FICI (ITR:INH) (Aspergillus flavus [6]; [20]): 0.5
- FICI (KET:INH) (Aspergillus flavus [6]; [21]): 0.52
- INH MICc (FLC:INH) (Aspergillus flavus [6]; [22]): 128
- INH MICc (ITR:INH) (Aspergillus flavus [6]; [23]): 64
- INH MICc (KET:INH) (Aspergillus flavus [6]; [24]): 4
- FLC FD (FLC:INH) (Aspergillus flavus [6]; [25]): 1
- ITR FD (ITR:INH) (Aspergillus flavus [6]; [26]): 4
- KET FD (KET:INH) (Aspergillus flavus [6]; [27]): 2
- INH FD (FLC:INH) (Aspergillus flavus [6]; [28]): 2
- INH FD (ITR:INH) (Aspergillus flavus [6]; [29]): 4
- INH FD (KET:INH) (Aspergillus flavus [6]; [30]): 64
- MFC (Candida glabrata [7]): > 128 µg/mL
- MIC (Candida glabrata [7]): > 128 µg/mL
- MFC (Candida albicans [8]): > 128 µg/mL
- MIC (Candida albicans [8]): > 128 µg/mL
- MFC (Trichophyton rubrum [9]): > 128 µg/mL
- MIC (Trichophyton rubrum [9]): 16 µg/mL (≈ 37.5 µM)
- FICI (Candida glabrata [10]; FLC:INH combination): 1
- INH MICc (Candida glabrata [10]; [31]): 8
- FLC FD (MIC-MICc fold decrease) (Candida glabrata [10]; [32]): 2
- INH FD (MIC-MICc fold decrease) (Candida glabrata [10]; FLC:INH combination): 2
- FICI (Candida glabrata [10]; ITR:INH combination): 0.38
- INH MICc (Candida glabrata [10]; [33]): 2
- ITR FD (MIC-MICc fold decrease) (Candida glabrata [10]; [34]): 4
- INH FD (MIC-MICc fold decrease) (Candida glabrata [10]; ITR:INH combination): 8
- FICI (Candida glabrata [10]; KET:INH combination): 0.75
- INH MICc (Candida glabrata [10]; [35]): 4
- KET FD (MIC-MICc fold decrease) (Candida glabrata [10]; [36]): 2
- INH FD (MIC-MICc fold decrease) (Candida glabrata [10]; KET:INH combination): 4
- FICI ([11]; FLC:INH combination): 0.38
- INH MICc [11, 31]: 16
- FLC FD (MIC-MICc fold decrease) [11, 32]: 4
- INH FD (MIC-MICc fold decrease) ([11]; FLC:INH combination): 8
- FICI ([11]; ITR:INH combination): 0.63
- INH MICc [11, 33]: 16
- ITR FD (MIC-MICc fold decrease) [11, 34]: 2
- INH FD (MIC-MICc fold decrease) ([11]; ITR:INH combination): 8
- FICI ([11]; KET:INH combination): 0.19
- INH MICc [11, 35]: 16
- KET FD (MIC-MICc fold decrease) [11, 36]: 16
- INH FD (MIC-MICc fold decrease) ([11]; KET:INH combination): 8
- MFC (eight fungal species [12]; across eight species, read-out: Geometric mean MFC): 69.8 µg/mL (≈ 164 µM)
- MIC (eight fungal species [12]; geometric mean across eight species, read-out: GM fungal MIC): 38.1 µg/mL (≈ 89.3 µM)
- MIC (eight fungal species [12]; read-out: Geometric mean MIC): 38.1 µg/mL (≈ 89.3 µM)
- FICI (FLC:INH) (Aspergillus fumigatus [13]; [19]): 1.5
- FICI (ITR:INH) (Aspergillus fumigatus [13]; [20]): 0.52
- FICI (KET:INH) (Aspergillus fumigatus [13]; [21]): 1
- INH MICc (FLC:INH) (Aspergillus fumigatus [13]; [22]): 128
- INH MICc (ITR:INH) (Aspergillus fumigatus [13]; [23]): 2
- INH MICc (KET:INH) (Aspergillus fumigatus [13]; [24]): 64
- FLC FD (FLC:INH) (Aspergillus fumigatus [13]; [25]): 2
- ITR FD (ITR:INH) (Aspergillus fumigatus [13]; [26]): 2
- KET FD (KET:INH) (Aspergillus fumigatus [13]; [27]): 2
- INH FD (FLC:INH) (Aspergillus fumigatus [13]; [28]): 1
- INH FD (ITR:INH) (Aspergillus fumigatus [13]; [29]): 64
- INH FD (KET:INH) (Aspergillus fumigatus [13]; [30]): 2
- IC50 (HEK-293T cells; HEK-293T cells, read-out: IC50): 2.01 µg/mL (≈ 4.72 µM)
- IC50 (HEK-293T cells; read-out: HEK IC50): 2.01 µg/mL (≈ 4.72 µM)
- MFC (Aspergillus flavus [14]): > 128 µg/mL
- MIC (Aspergillus flavus [14]): > 128 µg/mL
- GM fungal MICc (eight fungal species [15]): 11.3
- FICI (FLC:INH) (Saccharomyces cerevisiae [16]; [19]): 0.75
- FICI (ITR:INH) (Saccharomyces cerevisiae [16]; [20]): 0.75
- FICI (KET:INH) (Saccharomyces cerevisiae [16]; [21]): 0.38
- INH MICc (FLC:INH) (Saccharomyces cerevisiae [16]; [22]): 2
- INH MICc (ITR:INH) (Saccharomyces cerevisiae [16]; [23]): 1
- INH MICc (KET:INH) (Saccharomyces cerevisiae [16]; [24]): 1
- FLC FD (FLC:INH) (Saccharomyces cerevisiae [16]; [25]): 4
- ITR FD (ITR:INH) (Saccharomyces cerevisiae [16]; [26]): 2
- KET FD (KET:INH) (Saccharomyces cerevisiae [16]; [27]): 8
- INH FD (FLC:INH) (Saccharomyces cerevisiae [16]; [28]): 2
- INH FD (ITR:INH) (Saccharomyces cerevisiae [16]; [29]): 4
- INH FD (KET:INH) (Saccharomyces cerevisiae [16]; [30]): 4
- MFC (Aspergillus fumigatus [17]): > 128 µg/mL
- MIC (Aspergillus fumigatus [17]): 32 µg/mL (≈ 75 µM)
- MFC (Cryptococcus neoformans [18]): 16 µg/mL (≈ 37.5 µM)
- MIC (Cryptococcus neoformans [18]): 16 µg/mL (≈ 37.5 µM)
